What all share (conditions): Compound concentration 1000.0 nM
For experiment [1], the target named is Cyclin-dependent kinase 13 (Homo sapiens) (UniProt Q14004).
Experiment [2] has as its target T1, Serine/threonine-protein kinase Nek11 (Homo sapiens) (UniProt Q8NG66).
T1 sequence (whole entry): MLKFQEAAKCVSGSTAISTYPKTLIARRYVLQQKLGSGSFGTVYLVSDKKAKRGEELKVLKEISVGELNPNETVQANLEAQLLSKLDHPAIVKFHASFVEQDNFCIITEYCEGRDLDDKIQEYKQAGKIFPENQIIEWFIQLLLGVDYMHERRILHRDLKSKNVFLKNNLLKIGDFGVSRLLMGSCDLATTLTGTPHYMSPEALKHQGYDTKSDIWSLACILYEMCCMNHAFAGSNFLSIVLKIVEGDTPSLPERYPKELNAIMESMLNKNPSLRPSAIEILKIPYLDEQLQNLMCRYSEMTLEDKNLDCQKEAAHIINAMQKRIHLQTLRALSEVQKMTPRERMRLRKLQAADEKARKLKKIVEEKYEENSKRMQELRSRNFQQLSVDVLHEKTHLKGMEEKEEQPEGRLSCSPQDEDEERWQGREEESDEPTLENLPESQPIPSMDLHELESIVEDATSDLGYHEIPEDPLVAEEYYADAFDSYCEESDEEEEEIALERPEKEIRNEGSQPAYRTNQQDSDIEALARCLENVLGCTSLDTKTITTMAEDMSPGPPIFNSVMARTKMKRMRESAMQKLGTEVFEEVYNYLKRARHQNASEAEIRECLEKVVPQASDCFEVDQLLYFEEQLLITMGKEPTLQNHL

Experiment [3] concerns the target Dual specificity protein kinase CLK1 (Homo sapiens) (UniProt P49759).
Experiment [4] concerns the target G protein-coupled receptor kinase 4 (Homo sapiens) (UniProt P32298).
In experiment [5] the target is Serine/threonine-protein kinase RIO1 (Homo sapiens) (UniProt Q9BRS2).
Experiment [6] has as its system ALK tyrosine kinase receptor (Homo sapiens), Q9UM73 [L1196M].
The target of experiment [7] is T2, Ephrin type-B receptor 2 (Homo sapiens) (UniProt P29323).
T2 sequence (whole entry): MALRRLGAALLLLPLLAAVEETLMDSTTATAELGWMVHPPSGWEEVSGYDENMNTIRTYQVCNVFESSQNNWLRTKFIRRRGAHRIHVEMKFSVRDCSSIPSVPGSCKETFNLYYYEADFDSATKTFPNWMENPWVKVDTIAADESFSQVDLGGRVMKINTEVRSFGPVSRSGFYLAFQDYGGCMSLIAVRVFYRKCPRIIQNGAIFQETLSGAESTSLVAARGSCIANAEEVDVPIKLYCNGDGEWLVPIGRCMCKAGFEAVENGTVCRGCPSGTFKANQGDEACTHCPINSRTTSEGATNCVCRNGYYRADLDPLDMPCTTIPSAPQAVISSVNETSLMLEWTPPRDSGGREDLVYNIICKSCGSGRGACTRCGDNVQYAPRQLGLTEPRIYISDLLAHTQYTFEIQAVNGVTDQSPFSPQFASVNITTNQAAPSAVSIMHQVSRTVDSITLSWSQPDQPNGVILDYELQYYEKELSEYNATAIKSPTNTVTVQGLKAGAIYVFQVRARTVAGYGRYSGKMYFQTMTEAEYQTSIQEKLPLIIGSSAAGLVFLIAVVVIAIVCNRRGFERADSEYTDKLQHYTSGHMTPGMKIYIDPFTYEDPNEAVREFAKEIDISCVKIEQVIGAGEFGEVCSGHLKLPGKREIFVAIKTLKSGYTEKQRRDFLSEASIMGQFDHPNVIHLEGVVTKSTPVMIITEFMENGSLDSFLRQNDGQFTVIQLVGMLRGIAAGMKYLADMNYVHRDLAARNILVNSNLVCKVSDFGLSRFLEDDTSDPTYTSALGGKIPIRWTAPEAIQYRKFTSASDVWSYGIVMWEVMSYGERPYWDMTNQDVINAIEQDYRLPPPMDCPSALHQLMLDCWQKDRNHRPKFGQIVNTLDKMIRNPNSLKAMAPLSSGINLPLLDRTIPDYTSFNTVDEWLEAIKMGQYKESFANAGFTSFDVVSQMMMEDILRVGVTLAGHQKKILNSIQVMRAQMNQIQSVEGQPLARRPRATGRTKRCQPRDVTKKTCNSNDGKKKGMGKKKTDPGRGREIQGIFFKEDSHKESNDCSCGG

For experiment [8], the target named is Interferon-induced, double-stranded RNA-activated protein kinase (Homo sapiens) (UniProt P19525).
For experiment [9], the target named is Ephrin type-B receptor 6 (Homo sapiens) (UniProt O15197).
Sequence of Ephrin type-B receptor 6 (Homo sapiens) (O15197 whole entry): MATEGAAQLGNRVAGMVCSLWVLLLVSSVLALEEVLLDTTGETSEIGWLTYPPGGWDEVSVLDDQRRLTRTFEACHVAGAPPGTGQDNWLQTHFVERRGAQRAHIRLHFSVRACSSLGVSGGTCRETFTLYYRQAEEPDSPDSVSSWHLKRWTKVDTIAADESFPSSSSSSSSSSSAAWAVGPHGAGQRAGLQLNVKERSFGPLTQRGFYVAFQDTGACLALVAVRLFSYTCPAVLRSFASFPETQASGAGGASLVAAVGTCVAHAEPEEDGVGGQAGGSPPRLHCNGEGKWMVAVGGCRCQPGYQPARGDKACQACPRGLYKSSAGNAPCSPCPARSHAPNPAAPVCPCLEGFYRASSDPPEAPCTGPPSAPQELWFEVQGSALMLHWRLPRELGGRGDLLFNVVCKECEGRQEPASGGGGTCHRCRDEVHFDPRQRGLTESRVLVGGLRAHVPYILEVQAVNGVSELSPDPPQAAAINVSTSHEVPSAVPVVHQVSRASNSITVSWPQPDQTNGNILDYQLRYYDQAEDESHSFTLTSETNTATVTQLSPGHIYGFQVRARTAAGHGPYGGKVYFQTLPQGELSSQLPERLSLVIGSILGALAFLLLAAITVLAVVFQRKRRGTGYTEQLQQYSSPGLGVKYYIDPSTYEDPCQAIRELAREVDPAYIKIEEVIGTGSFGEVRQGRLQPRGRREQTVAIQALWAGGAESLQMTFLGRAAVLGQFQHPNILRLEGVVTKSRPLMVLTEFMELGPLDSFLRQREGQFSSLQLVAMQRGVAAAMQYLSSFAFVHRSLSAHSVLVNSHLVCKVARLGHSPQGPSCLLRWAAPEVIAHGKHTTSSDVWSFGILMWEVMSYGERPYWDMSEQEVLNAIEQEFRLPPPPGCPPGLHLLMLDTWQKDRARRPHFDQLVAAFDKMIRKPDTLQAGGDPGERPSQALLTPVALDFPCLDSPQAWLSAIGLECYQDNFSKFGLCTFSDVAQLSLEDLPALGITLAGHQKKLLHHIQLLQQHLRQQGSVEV

Sequence of Cyclin-dependent kinase 13 (Homo sapiens) (Q14004 whole entry, looked up): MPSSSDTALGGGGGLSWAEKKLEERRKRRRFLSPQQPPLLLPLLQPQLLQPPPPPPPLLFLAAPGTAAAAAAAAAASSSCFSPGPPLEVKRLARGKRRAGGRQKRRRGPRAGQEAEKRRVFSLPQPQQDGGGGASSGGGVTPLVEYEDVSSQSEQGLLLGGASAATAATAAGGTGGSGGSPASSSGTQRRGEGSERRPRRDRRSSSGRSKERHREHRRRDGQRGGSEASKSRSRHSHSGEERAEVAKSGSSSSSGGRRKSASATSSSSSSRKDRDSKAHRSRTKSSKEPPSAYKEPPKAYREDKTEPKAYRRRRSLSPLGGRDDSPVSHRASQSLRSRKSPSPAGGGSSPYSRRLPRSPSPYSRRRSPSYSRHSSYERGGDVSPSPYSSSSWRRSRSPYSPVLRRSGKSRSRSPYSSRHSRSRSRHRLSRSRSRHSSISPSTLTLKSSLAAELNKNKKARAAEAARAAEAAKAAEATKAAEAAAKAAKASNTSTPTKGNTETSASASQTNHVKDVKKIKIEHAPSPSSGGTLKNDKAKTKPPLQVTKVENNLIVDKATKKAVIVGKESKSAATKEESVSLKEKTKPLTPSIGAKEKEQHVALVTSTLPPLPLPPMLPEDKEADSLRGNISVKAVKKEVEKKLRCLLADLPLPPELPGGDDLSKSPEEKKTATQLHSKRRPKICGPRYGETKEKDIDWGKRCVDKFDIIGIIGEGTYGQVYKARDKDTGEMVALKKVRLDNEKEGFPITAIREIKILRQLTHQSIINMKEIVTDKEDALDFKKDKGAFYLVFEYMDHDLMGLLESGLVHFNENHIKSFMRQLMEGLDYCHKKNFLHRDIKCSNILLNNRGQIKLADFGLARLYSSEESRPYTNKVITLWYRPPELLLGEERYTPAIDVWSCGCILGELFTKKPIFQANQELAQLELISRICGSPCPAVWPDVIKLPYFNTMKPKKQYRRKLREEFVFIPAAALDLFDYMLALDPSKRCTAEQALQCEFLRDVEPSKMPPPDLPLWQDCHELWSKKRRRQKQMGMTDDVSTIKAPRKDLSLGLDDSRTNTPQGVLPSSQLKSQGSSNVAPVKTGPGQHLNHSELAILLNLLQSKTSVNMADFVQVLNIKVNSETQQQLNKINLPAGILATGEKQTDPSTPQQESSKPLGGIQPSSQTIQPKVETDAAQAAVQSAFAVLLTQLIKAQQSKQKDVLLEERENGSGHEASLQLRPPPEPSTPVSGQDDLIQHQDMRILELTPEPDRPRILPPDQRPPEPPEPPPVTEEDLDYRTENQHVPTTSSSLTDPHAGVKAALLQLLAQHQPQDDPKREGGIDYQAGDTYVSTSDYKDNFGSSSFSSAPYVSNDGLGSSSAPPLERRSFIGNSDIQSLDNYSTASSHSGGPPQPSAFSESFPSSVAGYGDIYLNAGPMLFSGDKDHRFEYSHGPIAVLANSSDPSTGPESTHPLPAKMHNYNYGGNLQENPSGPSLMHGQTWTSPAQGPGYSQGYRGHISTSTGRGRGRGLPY
Sequence of G protein-coupled receptor kinase 4 (Homo sapiens) (P32298 whole entry, looked up): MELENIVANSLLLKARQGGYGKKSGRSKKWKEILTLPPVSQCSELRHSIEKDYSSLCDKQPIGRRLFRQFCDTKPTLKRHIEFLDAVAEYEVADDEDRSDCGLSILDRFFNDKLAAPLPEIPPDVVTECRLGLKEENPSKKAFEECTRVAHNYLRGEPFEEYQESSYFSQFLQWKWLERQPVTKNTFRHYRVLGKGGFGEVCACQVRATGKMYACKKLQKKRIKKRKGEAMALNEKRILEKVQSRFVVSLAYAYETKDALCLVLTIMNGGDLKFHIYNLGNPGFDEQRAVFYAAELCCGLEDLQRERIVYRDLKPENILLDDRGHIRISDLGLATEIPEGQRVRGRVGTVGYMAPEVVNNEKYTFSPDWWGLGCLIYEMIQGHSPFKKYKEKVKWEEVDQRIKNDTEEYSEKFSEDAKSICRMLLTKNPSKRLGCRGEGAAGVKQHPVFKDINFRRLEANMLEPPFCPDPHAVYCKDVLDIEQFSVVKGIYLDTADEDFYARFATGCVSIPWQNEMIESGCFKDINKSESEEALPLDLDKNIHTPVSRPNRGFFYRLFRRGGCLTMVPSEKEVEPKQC
Sequence of Interferon-induced, double-stranded RNA-activated protein kinase (Homo sapiens) (P19525 whole entry): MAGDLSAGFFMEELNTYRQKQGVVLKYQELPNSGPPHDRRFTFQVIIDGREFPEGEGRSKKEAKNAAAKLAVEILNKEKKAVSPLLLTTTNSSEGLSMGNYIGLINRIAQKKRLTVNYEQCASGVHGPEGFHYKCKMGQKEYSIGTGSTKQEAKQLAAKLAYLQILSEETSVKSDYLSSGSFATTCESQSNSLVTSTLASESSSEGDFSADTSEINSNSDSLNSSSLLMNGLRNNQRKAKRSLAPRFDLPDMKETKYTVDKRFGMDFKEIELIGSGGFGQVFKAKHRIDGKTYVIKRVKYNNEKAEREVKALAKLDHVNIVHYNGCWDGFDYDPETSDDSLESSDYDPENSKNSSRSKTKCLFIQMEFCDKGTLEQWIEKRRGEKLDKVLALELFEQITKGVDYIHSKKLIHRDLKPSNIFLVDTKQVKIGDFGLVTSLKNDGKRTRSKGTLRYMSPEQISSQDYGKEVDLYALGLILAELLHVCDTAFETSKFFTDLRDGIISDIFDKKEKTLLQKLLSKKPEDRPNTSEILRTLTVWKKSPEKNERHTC
Sequence of Dual specificity protein kinase CLK1 (Homo sapiens) (P49759 whole entry, looked up): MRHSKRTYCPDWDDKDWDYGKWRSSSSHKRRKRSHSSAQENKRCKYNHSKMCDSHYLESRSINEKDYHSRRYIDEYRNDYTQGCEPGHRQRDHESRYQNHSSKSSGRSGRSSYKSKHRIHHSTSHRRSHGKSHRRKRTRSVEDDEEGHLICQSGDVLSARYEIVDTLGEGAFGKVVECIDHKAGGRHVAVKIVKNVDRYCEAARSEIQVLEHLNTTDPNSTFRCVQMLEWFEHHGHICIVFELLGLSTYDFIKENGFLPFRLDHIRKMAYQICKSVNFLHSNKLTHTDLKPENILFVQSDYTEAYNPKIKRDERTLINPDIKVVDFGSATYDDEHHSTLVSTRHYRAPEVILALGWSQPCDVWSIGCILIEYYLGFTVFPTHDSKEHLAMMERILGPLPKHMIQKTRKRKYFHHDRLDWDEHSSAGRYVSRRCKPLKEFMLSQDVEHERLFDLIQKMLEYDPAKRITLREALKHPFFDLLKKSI
Sequence of Serine/threonine-protein kinase RIO1 (Homo sapiens) (Q9BRS2 whole entry): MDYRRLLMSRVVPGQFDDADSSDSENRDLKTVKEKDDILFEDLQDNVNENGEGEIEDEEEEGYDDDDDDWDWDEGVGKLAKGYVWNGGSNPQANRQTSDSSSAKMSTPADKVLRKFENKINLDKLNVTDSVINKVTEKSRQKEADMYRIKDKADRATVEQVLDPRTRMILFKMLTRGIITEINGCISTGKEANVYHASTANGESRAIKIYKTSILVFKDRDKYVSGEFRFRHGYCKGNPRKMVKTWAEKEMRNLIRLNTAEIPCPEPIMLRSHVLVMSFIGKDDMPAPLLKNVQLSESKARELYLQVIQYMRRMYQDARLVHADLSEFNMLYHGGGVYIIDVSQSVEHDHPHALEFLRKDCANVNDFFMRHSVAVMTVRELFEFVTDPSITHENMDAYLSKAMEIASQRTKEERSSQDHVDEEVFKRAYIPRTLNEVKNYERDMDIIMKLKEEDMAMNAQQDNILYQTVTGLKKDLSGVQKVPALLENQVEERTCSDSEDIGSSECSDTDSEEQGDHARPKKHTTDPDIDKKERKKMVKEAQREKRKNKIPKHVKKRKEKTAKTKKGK

Consider `Cc1nc(C2CCN(C(=O)c3ccc(OC(F)(F)F)cc3N)CC2)c2ncc(N3CCN(C)CC3)cc2n1` [BAY-693], for which the residual activity in experiment [1] is 88%; in [2], 100%; in experiment [3], 100%; in experiment [4] it was 96%; in experiment [5] it was 100%; in experiment [6] it was 98%. In addition, the residual activity was 100% in experiment [7], 95% in experiment [8] and 100% in experiment [9].
Turning to `CN1CCN(c2cnc3c(C4CCN(C(=O)c5ccc(OC(F)(F)F)cc5N)CC4)ncnc3c2)CC1` [BAY-885], the residual activity is 62% in experiment [1]; 100% in [2]; 100% in experiment [3]; 100% in experiment [4]; 100% in experiment [5]; 100% in experiment [6]. The residual activity is 78% in experiment [7], 85% in experiment [8] and 18% in [9].

The values above are taken from ChEMBL document CHEMBL4507268 (2021).
